Results reported in patent publication US20220332699A1 (SAGE THERAPEUTICS, INC., priority 2019, published 2022).

Target: CYP46A1 (Homo sapiens, UniProt Q9Y6A2)
Test: CYP46A1 Enzyme Assay 2 (testosterone substrate, HPLC-MS)
Assay type: biochemical
Settings: read-out: IC50 (CYP46A1 inhibitory activity)
Method: Briefly, in a 384-well plate format, 10 μL per well of an enzyme-substrate mixture of CYP46A1 (5 μM final concentration) and Testosterone ([…] final concentration) were dispensed to wells containing test compound. For CYP46A1 titration, 5 μL per well of serially diluted CYP46A1 (concentrations including 10 μM, 5 μM, and 2.5 μM) and Testosterone (concentration of […]) were dispensed. For Testosterone titration, 5 μL per well of serially diluted Testosterone (concentrations including 10 μM, 5 μM, and 2.5 μM) and CYP46A1 (concentration of 5 μM) were dispensed. The plates were centrifuged at 1000 rpm for 30 seconds, and then sealed and incubated at 37° C. for 30 minutes. The plate was removed from the incubator, and then 10 μL per well of NADPH-generating system were dispensed to initiate the reaction. The plates were incubated at 37° C. for 15 minutes, added with 80 μL per well of 100% methanol consisting 1 ng/ml diclofenac as internal standard, and then transferred for HPLC-MS.

CYP46A1, sequence (Q9Y6A2 whole entry): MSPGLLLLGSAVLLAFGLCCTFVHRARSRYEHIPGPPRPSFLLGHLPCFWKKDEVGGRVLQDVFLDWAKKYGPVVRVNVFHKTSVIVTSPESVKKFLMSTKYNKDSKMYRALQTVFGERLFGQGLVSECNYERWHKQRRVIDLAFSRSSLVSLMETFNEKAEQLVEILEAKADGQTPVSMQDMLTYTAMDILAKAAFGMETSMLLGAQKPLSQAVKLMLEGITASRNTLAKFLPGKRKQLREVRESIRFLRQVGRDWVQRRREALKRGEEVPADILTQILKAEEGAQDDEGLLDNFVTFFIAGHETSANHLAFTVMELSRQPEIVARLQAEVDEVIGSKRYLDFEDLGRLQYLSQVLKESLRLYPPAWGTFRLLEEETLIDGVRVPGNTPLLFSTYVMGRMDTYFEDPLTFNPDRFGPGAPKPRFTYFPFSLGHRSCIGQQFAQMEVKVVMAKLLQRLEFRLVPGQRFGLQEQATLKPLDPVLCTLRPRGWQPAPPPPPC

IC50 [nM]	SMILES
< 100	N#CC1(Cc2cccc(C(F)(F)F)c2)CCN(C(=O)c2cccnc2-c2ccncc2)CC1 [Compound A279, 1-([2,4′-bipyridine]-3-carbonyl)-4-(3-(trifluoromethyl)benzyl)piperidine-4-carbonitrile]
< 100	N#CC1(Cc2cc(C(F)(F)F)ccc2F)CCN(C(=O)c2cccnc2-c2ccncn2)CC1 [Compound A273, 4-(2-fluoro-5-(trifluoromethyl)benzyl)-1-(2-(pyrimidin-4-yl)nicotinoyl)piperidine-4-carbonitrile]
< 100	C[C@H](c1ccc(F)cc1)C1(C#N)CCN(C(=O)c2cccnc2-c2ccncn2)CC1 [Compound A45, (R)-4-(1-(4-fluorophenyl)ethyl)-1-(2-(pyrimidin-4-yl)nicotinoyl)piperidine-4-carbonitrile]
100 to 1000	N#CC1(Cc2ccc(C(F)(F)F)cn2)CCN(C(=O)c2cccnc2-c2ccncn2)CC1 [Compound A228, 1-(2-(pyrimidin-4-yl)nicotinoyl)-4-((5-(trifluoromethyl)pyridin-2-yl)methyl)piperidine-4-carbonitrile]
< 100	N#CC1(Cc2ccc(F)cc2)CCN(C(=O)c2cc(Cl)ccc2-c2ccncn2)CC1 [Compound A234, 1-(5-chloro-2-(pyrimidin-4-yl)benzoyl)-4-(4-fluorobenzyl)piperidine-4-carbonitrile]
< 100	N#CC1(Cc2ccc(-c3ccccc3)cc2)CCN(C(=O)c2cccnc2-c2ccncc2)CC1 [Compound A19, 4-([1,1′-biphenyl]-4-ylmethyl)-1-([2,4′-bipyridine]-3-carbonyl)piperidine-4-carbonitrile]
< 100	N#CC1(Cc2ccc(Cl)cc2)CCN(C(=O)c2cccnc2-c2ccncn2)CC1 [Compound A37, 4-(4-chlorobenzyl)-1-(2-(pyrimidin-4-yl)nicotinoyl)piperidine-4-carbonitrile]
< 100	N#CC1(Cc2ccc3ccccc3c2)CCN(C(=O)c2cccnc2-c2ccncn2)CC1 [Compound A224, 4-(naphthalen-2-ylmethyl)-1-(2-(pyrimidin-4-yl)nicotinoyl)piperidine-4-carbonitrile]
< 100	N#CC1(Cc2c(F)cc(F)cc2F)CCN(C(=O)c2cccnc2-c2ccncc2)CC1 [Compound A272, 1-([2,4′-bipyridine]-3-carbonyl)-4-(2,4,6-trifluorobenzyl)piperidine-4-carbonitrile]
< 100	N#CC1(Cc2ccc(C(F)(F)F)cc2)CCN(C(=O)c2cccnc2-c2ccncc2)CC1 [Compound A285, 1-([2,4′-bipyridine]-3-carbonyl)-4-(4-(trifluoromethyl)benzyl)piperidine-4-carbonitrile]
< 100	N#CC1(Cc2ccc(Cl)cc2Br)CCN(C(=O)c2cccnc2-c2ccncn2)CC1 [Compound A232, 4-(2-bromo-4-chlorobenzyl)-1-(2-(pyrimidin-4-yl)nicotinoyl)piperidine-4-carbonitrile]
100 to 1000	N#CC1(Cc2ccc(F)cc2C(F)(F)F)CCN(C(=O)c2cccnc2-c2ccncn2)CC1 [Compound A276, 4-(4-fluoro-2-(trifluoromethyl)benzyl)-1-(2-(pyrimidin-4-yl)nicotinoyl)piperidine-4-carbonitrile]
< 100	C[C@H](c1ccc(F)cc1F)C1(C#N)CCN(C(=O)c2cccnc2-c2ccncc2)CC1 [Compound A237, (S)-1-([2,4′-bipyridine]-3-carbonyl)-4-(1-(2,4-difluorophenyl)ethyl)piperidine-4-carbonitrile]
< 100	C[C@@H](c1ccc(F)cc1F)C1(C#N)CCN(C(=O)c2cccnc2-c2ccncn2)CC1 [Compound A242, (R)-4-(1-(2,4-difluorophenyl)ethyl)-1-(2-(pyrimidin-4-yl)nicotinoyl)piperidine-4-carbonitrile]
< 100	C[C@@H]1CN(C(=O)c2cccnc2-c2ccncn2)CC[C@@]1(C#N)Cc1ccc(F)cc1 [Compound A247, (3S,4S)-4-(4-fluorobenzyl)-3-methyl-1-(2-(pyrimidin-4-yl)nicotinoyl)piperidine-4-carbonitrile]
< 100	N#CC1(Cc2ccccc2C2CC2)CCN(C(=O)c2cccnc2-c2ccncn2)CC1 [Compound A214, 4-(2-cyclopropylbenzyl)-1-(2-(pyrimidin-4-yl)nicotinoyl)piperidine-4-carbonitrile]
< 100	N#CC1(Cc2ccc(OC(F)(F)F)cc2)CCN(C(=O)c2cccnc2-c2ccncn2)CC1 [Compound A217, 1-(2-(pyrimidin-4-yl)nicotinoyl)-4-(4-(trifluoromethoxy)benzyl)piperidine-4-carbonitrile]
> 1000	N#C[C@]1(Cc2ccc(F)cc2)CCN(C(=O)c2cccnc2-c2ccncn2)C1 [Compound A235, (R)-3-(4-fluorobenzyl)-1-(2-(pyrimidin-4-yl)nicotinoyl)pyrrolidine-3-carbonitrile]

IC50 [nM]	SMILES
> 1000	Cc1ncc(CC2(C#N)CCN(C(=O)c3cccnc3-c3ccncn3)CC2)cn1 [Compound A203, 4-((2-methylpyrimidin-5-yl)methyl)-1-(2-(pyrimidin-4-yl)nicotinoyl)piperidine-4-carbonitrile]
< 100	N#CC1(Cc2cccc(C(F)(F)F)c2F)CCN(C(=O)c2cccnc2-c2ccncn2)CC1 [Compound A265, 4-(2-fluoro-3-(trifluoromethyl)benzyl)-1-(2-(pyrimidin-4-yl)nicotinoyl)piperidine-4-carbonitrile]
< 100	N#CC1(Cc2ccc(F)cc2F)CCN(C(=O)c2cccnc2-c2ccncc2)CC1 [Compound A284, 1-([2,4′-bipyridine]-3-carbonyl)-4-(2,4-difluorobenzyl)piperidine-4-carbonitrile]
< 100	CC(c1cc(F)cc(F)c1)C1(C#N)CCN(C(=O)c2cccnc2-c2ccncn2)CC1 (stereo in doubt) [Compound A257, (S)-4-(1-(3,5-difluorophenyl)ethyl)-1-(2-(pyrimidin-4-yl)nicotinoyl)piperidine-4-carbonitrile]
< 100	Cc1ccc(CC2(C#N)CCN(C(=O)c3cccnc3-c3ccncn3)CC2)cn1 [Compound A201, 4-((6-methylpyridin-3-yl)methyl)-1-(2-(pyrimidin-4-yl)nicotinoyl)piperidine-4-carbonitrile]
100 to 1000	N#CC1(Cc2ccncc2)CCN(C(=O)c2cccnc2-c2ccncc2)CC1 [Compound A65, 1-([2,4′-Bipyridine]-3-carbonyl)-4-(pyridin-4-ylmethyl)piperidine-4-carbonitrile]
< 100	N#CC1(Cc2ccc(F)cc2)CCN(C(=O)c2c(F)cccc2-c2ccncn2)CC1 [Compound A221, 1-(2-fluoro-6-(pyrimidin-4-yl)benzoyl)-4-(4-fluorobenzyl)piperidine-4-carbonitrile]
< 100	N#CC1(Cc2cccc(Cl)c2)CCN(C(=O)c2cccnc2-c2ccncn2)CC1 [Compound A210, 4-(3-chlorobenzyl)-1-(2-(pyrimidin-4-yl)nicotinoyl)piperidine-4-carbonitrile]
< 100	N#CC1(Cc2c(F)cc(C(F)(F)F)cc2F)CCN(C(=O)c2cccnc2-c2ccncn2)CC1 [Compound A281, 4-(2,6-difluoro-4-(trifluoromethyl)benzyl)-1-(2-(pyrimidin-4-yl)nicotinoyl)piperidine-4-carbonitrile]
100 to 1000	N#CC1(CC2CCOCC2)CCN(C(=O)c2cccnc2-c2ccncn2)CC1 [Compound A48, 1-(2-(pyrimidin-4-yl)nicotinoyl)-4-((tetrahydro-2H-pyran-4-yl)methyl)piperidine-4-carbonitrile]
< 100	N#CC1(Cc2ccc(F)cc2)CCN(C(=O)c2ccc(F)cc2-c2ccncn2)CC1 [Compound A220, 1-(4-fluoro-2-(pyrimidin-4-yl)benzoyl)-4-(4-fluorobenzyl)piperidine-4-carbonitrile]
< 100	N#CC1(Cc2cccc(C(F)(F)F)c2F)CCN(C(=O)c2cccnc2-c2ccncc2)CC1 [Compound A266, 1-([2,4′-bipyridine]-3-carbonyl)-4-(2-fluoro-3-(trifluoromethyl)benzyl)piperidine-4-carbonitrile]
100 to 1000	N#CC1(CC2CC2)CCN(C(=O)c2cccnc2-c2ccncn2)CC1 [Compound A58, 4-(cyclopropylmethyl)-1-(2-(pyrimidin-4-yl)nicotinoyl)piperidine-4-carbonitrile]
< 100	C[C@H](c1c(F)cccc1F)C1(C#N)CCN(C(=O)c2cccnc2-c2ccncc2)CC1 [Compound A245, (S)-1-([2,4′-bipyridine]-3-carbonyl)-4-(1-(2,6-difluorophenyl)ethyl)piperidine-4-carbonitrile]
< 100	N#CC1(Cc2ccc(F)cc2)CCN(C(=O)c2ccccc2-c2ccncn2)CC1 [Compound A229, 4-(4-fluorobenzyl)-1-(2-(pyrimidin-4-yl)benzoyl)piperidine-4-carbonitrile]
< 100	COc1ccc(CC2(C#N)CCN(C(=O)c3cccnc3-c3ccncn3)CC2)cn1 [Compound A202, 4-((6-methoxypyridin-3-yl)methyl)-1-(2-(pyrimidin-4-yl)nicotinoyl)piperidine-4-carbonitrile]
< 100	CC(c1ccc(C(F)(F)F)cc1)C1(C#N)CCN(C(=O)c2cccnc2-c2ccncc2)CC1 (stereo in doubt) [Compound A268, (R)-1-([2,4′-bipyridine]-3-carbonyl)-4-(1-(4-(trifluoromethyl)phenyl)ethyl)piperidine-4-carbonitrile]
< 100	N#CC1(Cc2ccc(Cl)cc2C2CC2)CCN(C(=O)c2cccnc2-c2ccncn2)CC1 [Compound A231, 4-(4-chloro-2-cyclopropylbenzyl)-1-(2-(pyrimidin-4-yl)nicotinoyl)piperidine-4-carbonitrile]
